The values that follow come from patent US20240190831A1, “TRANSTHYRETIN STABILIZING COMPOUNDS” (Protego Biopharma, Inc., priority 2021, published 2024).

This data set can be described thus: In vitro rat liver S9 stability assay (formation of tafamidis). It counts as in vitro ADME. Conditions: rat liver S9, 1 μM test compound, 37° C. The protocol:
A stability assay in liver S9 (rat or human) was used to evaluate the ability of a compound provided herein to convert to an active TTR stabilizer. The test compound was added to liver S9 and incubated at 37° C. in a water bath at a concentration of 1 μM. At each time point (0, 5, 10, 20, 30 and 60 min), stop solution (tolbutamide plus labetalol) was added to precipitate protein and mixed thoroughly. After centrifugation, an aliquot of supernatant was analyzed by LC-MS/MS. The percentage of formation of active agent was calculated at each time point.
Consider `O=C(O[C@H]1C[C@@H](O)C1)c1ccc2nc(-c3cc(Cl)cc(Cl)c3)oc2c1` [Compound 63, (cis)-3-hydroxycyclobutyl 2-(3,5-dichlorophenyl) benzo[d]oxazole-6-carboxylate], for which the “Formation of tafamidis at 60 min” value is “A (A is <25%)”.

Consider `O=C(O[C@H]1C[C@H](O)C1)c1ccc2nc(-c3cc(Cl)cc(Cl)c3)oc2c1` [Compound 64, (trans)-3-hydroxycyclobutyl 2-(3,5-dichlorophenyl) benzo[d]oxazole-6-carboxylate], for which the “Formation of tafamidis at 60 min” value is reported as “B (B is ≥25 to <50%)”.

For the molecule `O=C(OC1CC(=O)N2CCCCC12)c1ccc2nc(-c3cc(Cl)cc(Cl)c3)oc2c1` (centres unmarked) [Compound 65, 3-oxooctahydroindolizin-1-yl 2-(3,5-dichlorophenyl)benzo-[d]oxazole-6-carboxylate], the “Formation of tafamidis at 60 min” value is “C (C is ≥50 to <75%)”.

With `O=C(OC1CCN(CCO)C1)c1ccc2nc(-c3cc(Cl)cc(Cl)c3)oc2c1` (centres unmarked) [Compound 66], the “Formation of tafamidis at 60 min” value was “A (A is <25%)”.

`COCCN1CCC(OC(=O)c2ccc3nc(-c4cc(Cl)cc(Cl)c4)oc3c2)C1` (centres unmarked) [Compound 67, 1-(2-methoxyethyl) pyrrolidin-3-yl 2-(3,5-dichlorophenyl) benzo[d]oxazole-6-carboxylate]: the “Formation of tafamidis at 60 min” value is given as “A (A is <25%)”.

`CC(Cc1cnc[nH]1)OC(=O)c1ccc2nc(-c3cc(Cl)cc(Cl)c3)oc2c1` (centres unmarked) [Compound 80]: the “Formation of tafamidis at 60 min” value is recorded as “A (A is <25%)”.

With `O=C(c1ccc2nc(-c3cc(Cl)cc(Cl)c3)oc2c1)N1CCOCC1` [Compound 81], the “Formation of tafamidis at 60 min” value is “A (A is <25%)”.

For `O=C(c1ccc2nc(-c3cc(Cl)cc(Cl)c3)oc2c1)N1CCC(O)CC1` [Compound 82], the “Formation of tafamidis at 60 min” value was “A (A is <25%)”.

Consider `O=C(c1ccc2nc(-c3cc(Cl)cc(Cl)c3)oc2c1)N1CCCC1CO` (centres unmarked) [Compound 85], for which the “Formation of tafamidis at 60 min” value is reported as “A (A is <25%)”.

For `O=C(c1ccc2nc(-c3cc(Cl)cc(Cl)c3)oc2c1)N1CC(O)C(F)(F)C1` (centres unmarked) [Compound 86], the “Formation of tafamidis at 60 min” value is on record as “A (A is <25%)”.

On to `CN(C)C(=O)c1ccc2nc(-c3cc(Cl)cc(Cl)c3)oc2c1` [Compound 87, 2-(3,5-Dichlorophenyl)-N,N-dimethylbenzo[d]oxazole-6-carboxamide], for which the “Formation of tafamidis at 60 min” value is on record as “A (A is <25%)”.

For `O=C(c1ccc2nc(-c3cc(Cl)cc(Cl)c3)oc2c1)N1CCCC1` [Compound 88], the “Formation of tafamidis at 60 min” value is reported as “A (A is <25%)”.

Take `O=C(c1ccc2nc(-c3cc(Cl)cc(Cl)c3)oc2c1)N1CCCCC1` [Compound 89]: the “Formation of tafamidis at 60 min” value is listed as “A (A is <25%)”.

On to `O=C(c1ccc2nc(-c3cc(Cl)cc(Cl)c3)oc2c1)N(CCO)CC(F)F` [Compound 90], for which the “Formation of tafamidis at 60 min” value was “A (A is <25%)”.

As to `O=C(c1ccc2nc(-c3cc(Cl)cc(Cl)c3)oc2c1)N(CCO)CCF` [Compound 91], the “Formation of tafamidis at 60 min” value is “A (A is <25%)”.

As for `CC1(O)CCN(C(=O)c2ccc3nc(-c4cc(Cl)cc(Cl)c4)oc3c2)C1` (centres unmarked) [Compound 92], the “Formation of tafamidis at 60 min” value is given as “A (A is <25%)”.

For `O=C(c1ccc2nc(-c3cc(Cl)cc(Cl)c3)oc2c1)N1CC2(CC(O)C2)C1` [Compound 94], the “Formation of tafamidis at 60 min” value is “A (A is <25%)”.

On to `O=C(c1ccc2nc(-c3cc(Cl)cc(Cl)c3)oc2c1)N1CCCCC1CO` (centres unmarked) [Compound 95], for which the “Formation of tafamidis at 60 min” value is “A (A is <25%)”.

With `O=C(N[C@H]1CC[C@@H](O)CC1)c1ccc2nc(-c3cc(Cl)cc(Cl)c3)oc2c1` [Compound 96], the “Formation of tafamidis at 60 min” value is recorded as “A (A is <25%)”.

Consider `O=C(N[C@H]1CC[C@H](O)CC1)c1ccc2nc(-c3cc(Cl)cc(Cl)c3)oc2c1` [Compound 97], for which the “Formation of tafamidis at 60 min” value is reported as “A (A is <25%)”.

Turning to `O=C(NC1CC2(CC(O)C2)C1)c1ccc2nc(-c3cc(Cl)cc(Cl)c3)oc2c1` (centres unmarked) [Compound 98], the “Formation of tafamidis at 60 min” value is on record as “A (A is <25%)”.

As for `O=C(N[C@@H]1CCC[C@H](O)C1)c1ccc2nc(-c3cc(Cl)cc(Cl)c3)oc2c1` [Compound 99], the “Formation of tafamidis at 60 min” value was “A (A is <25%)”.

As for `O=C(N[C@@H]1CCC[C@@H](O)C1)c1ccc2nc(-c3cc(Cl)cc(Cl)c3)oc2c1` [Compound 100], the “Formation of tafamidis at 60 min” value was “A (A is <25%)”.

Turning to `CC1(O)CCCN(C(=O)c2ccc3nc(-c4cc(Cl)cc(Cl)c4)oc3c2)C1` (centres unmarked) [Compound 102], the “Formation of tafamidis at 60 min” value is listed as “A (A is <25%)”.

Take `CC1(O)CCN(C(=O)c2ccc3nc(-c4cc(Cl)cc(Cl)c4)oc3c2)CC1` [Compound 103]: the “Formation of tafamidis at 60 min” value is given as “A (A is <25%)”.

For the molecule `O=C(c1ccc2nc(-c3cc(Cl)cc(Cl)c3)oc2c1)N1CCC2(CC(O)C2)C1` (centres unmarked) [Compound 105], the “Formation of tafamidis at 60 min” value is recorded as “A (A is <25%)”.

Take `CC1(O)CC2(CCN(C(=O)c3ccc4nc(-c5cc(Cl)cc(Cl)c5)oc4c3)C2)C1` (centres unmarked) [Compound 106]: the “Formation of tafamidis at 60 min” value is “A (A is <25%)”.

Turning to `O=C(c1ccc2nc(-c3cc(Cl)cc(Cl)c3)oc2c1)N1CC2(CCC(O)C2)C1` (centres unmarked) [Compound 107], the “Formation of tafamidis at 60 min” value was “A (A is <25%)”.

Regarding `O=C(c1ccc2nc(-c3cc(Cl)cc(Cl)c3)oc2c1)N1C[C@@H]2[C@H](O)[C@@H]2C1` [Compound 108], the “Formation of tafamidis at 60 min” value was “A (A is <25%)”.

As to `O=C(c1ccc2nc(-c3cc(Cl)cc(Cl)c3)oc2c1)N1C[C@@H]2[C@@H](O)[C@@H]2C1` [Compound 109], the “Formation of tafamidis at 60 min” value was “A (A is <25%)”.

Regarding `CC1(O)CC2(CN(C(=O)c3ccc4nc(-c5cc(Cl)cc(Cl)c5)oc4c3)C2)C1` [Compound 110], the “Formation of tafamidis at 60 min” value is “A (A is <25%)”.

As for `CC1(O)CCC2(CN(C(=O)c3ccc4nc(-c5cc(Cl)cc(Cl)c5)oc4c3)C2)C1` (centres unmarked) [Compound 111], the “Formation of tafamidis at 60 min” value is listed as “A (A is <25%)”.

Consider `O=C(c1ccc2nc(-c3cc(Cl)cc(Cl)c3)oc2c1)N1CCC(F)C1` (centres unmarked) [Compound 112], for which the “Formation of tafamidis at 60 min” value was “A (A is <25%)”.

Turning to `O=C(c1ccc2nc(-c3cc(Cl)cc(Cl)c3)oc2c1)N1CC(F)(F)C[C@H]1CO` [Compound 113], the “Formation of tafamidis at 60 min” value was “A (A is <25%)”.

For `O=C(c1ccc2nc(-c3cc(Cl)cc(Cl)c3)oc2c1)N1CC[C@@H](O)[C@@H](F)C1` [Compound 114], the “Formation of tafamidis at 60 min” value is reported as “A (A is <25%)”.

Take `O=C(c1ccc2nc(-c3cc(Cl)cc(Cl)c3)oc2c1)N1CCCCC(F)(F)C1` [Compound 115]: the “Formation of tafamidis at 60 min” value was “A (A is <25%)”.

In the case of `O=C(c1ccc2nc(-c3cc(Cl)cc(Cl)c3)oc2c1)N1CCC(O)C(F)(F)C1` (centres unmarked) [Compound 116], the “Formation of tafamidis at 60 min” value is listed as “A (A is <25%)”.

Turning to `CC1(OC(=O)c2ccc3nc(-c4cc(Cl)cc(Cl)c4)oc3c2)CCNC1.Cl` (centres unmarked) [Compound 117], the “Formation of tafamidis at 60 min” value was “A (A is <25%)”.

`O=C(c1ccc2nc(-c3cc(Cl)cc(Cl)c3)oc2c1)N1CCCC1C(F)(F)F` (centres unmarked) [Compound 118]: the “Formation of tafamidis at 60 min” value was “A (A is <25%)”.

As to `CC1(OC(=O)c2ccc3nc(-c4cc(Cl)cc(Cl)c4)oc3c2)CCN(CC(F)(F)F)C1` (centres unmarked) [Compound 119], the “Formation of tafamidis at 60 min” value is recorded as “A (A is <25%)”.

On to `CC1(OC(=O)c2ccc3nc(-c4cc(Cl)cc(Cl)c4)oc3c2)CCN(CCF)C1` (centres unmarked) [Compound 120], for which the “Formation of tafamidis at 60 min” value is given as “A (A is <25%)”.

Take `O=C(c1ccc2nc(-c3cc(Cl)cc(Cl)c3)oc2c1)N1C[C@@H](F)[C@@H](F)C1` [Compound 121]: the “Formation of tafamidis at 60 min” value is given as “A (A is <25%)”.

With `CC1(OC(=O)c2ccc3nc(-c4cc(Cl)cc(Cl)c4)oc3c2)CCN(CC(F)F)C1` (centres unmarked) [Compound 122], the “Formation of tafamidis at 60 min” value is recorded as “C (C is ≥50 to <75%)”.

As for `CC1(OC(=O)c2ccc3nc(-c4cc(Cl)cc(Cl)c4)oc3c2)CCNCC1.Cl` [Compound 123], the “Formation of tafamidis at 60 min” value was “A (A is <25%)”.

As to `CC1(OC(=O)c2ccc3nc(-c4cc(Cl)cc(Cl)c4)oc3c2)CCN(CC(F)(F)F)CC1` [Compound 124], the “Formation of tafamidis at 60 min” value is listed as “A (A is <25%)”.

For the molecule `O=C(c1ccc2nc(-c3cc(Cl)cc(Cl)c3)oc2c1)N1CC[C@H](O)[C@H](F)C1` [Compound 125], the “Formation of tafamidis at 60 min” value was “A (A is <25%)”.

`CCN1CCC(C)(OC(=O)c2ccc3nc(-c4cc(Cl)cc(Cl)c4)oc3c2)CC1` [Compound 126]: the “Formation of tafamidis at 60 min” value is on record as “A (A is <25%)”.
